Measurements taken from publication PMC6450673, “Targeted degradation of aberrant tau in frontotemporal dementia patient-derived neuronal cell models” (eLife, 2019).
Values belong to the compound of their own block, whether it stands above or below them.

Tests used:
monoamine oxidase (MAO) = test: Monoamine oxidase (MAO-Glo) activity assay; assay type: biochemical; settings: four parameter fit; for IC50: 60-min reaction, read-out: MAO Dose Response IC50
Procedure: The Monoamine oxidase (MAO) activity measurements were performed using a MAO-Glo assay kit (Promega, Madison, WI), in a 384-well plate (Proxiplate 384 Plus, Perkin Elmer, Waltham, MA) with the miniaturization of final assay volume to 20 µL, as per the manufacturer’s instructions. In brief, MAO reactions were terminated after a 60-min enzymatic reaction, by the addition of reconstituted Luciferin Detection Reagent. Following a 20-min incubation with the detection reagent, the luminescence was measured using a multi-label plate reader (Envision, Perkin Elmer). IC50 values were estimated by fitting percentage inhibition vs. compound concentration in a variable slope (four parameter) fit.

[1] = tested on: total tau (TAU5) in A152T neurons; test: Western blot of total tau in A152T neurons; assay type: cell-based, human; settings: pre-treatment 6 hr then 1 μM QC-01–175 for 18 hr, western blot
From the text: (§1) Cells from individuals carrying the tau risk variant A152T (c.1407G > A; NCBI RefSeq NM_001123066, rs143624519), the autosomal dominant mutation P301L (c.C1907T; NCBI NM_001123066, rs63751273), or age-matched non-mutant WT tau were employed in this study (Figure 2—source data 1). Dermal fibroblasts from the tau-P301L carrier and the healthy individual were generated from a skin biopsy from subjects within the MGH Frontotemporal Disorders Unit as part of the MGH Neurodegeneration Repository. Approval for human subjects’ work was obtained under a Partners/MGH-approved IRB Protocol (#2010P001611/MGH). Fibroblasts were reprogrammed into iPSCs, which were subsequently converted into cortical-enriched neural progenitor cells (NPCs) and differentiated into neuronal cells as previously described ([Almeida et al., 2012]; [Seo et al., 2017]; [Silva et al., 2016]; [Sheridan et al., 2011]) (Silva MC, Manuscript in preparation, 2019). Briefly, cells were cultured in 6-well (Fisher Scientific Corning, Pittsburgh, PA) or 96-well (Fisher Scientific Corning) plates coated with poly-ornithine (20 μg/mL in water, Sigma, St. Louis, MO) and laminin (5 μg/mL in PBS, Sigma) (POL-coated), in DMEM/F12-B27 media [70% DMEM (Gibco, Carlsbad, CA), 30% Ham’s-F12 (Fisher Scientific Corning), 2% B27 (Gibco), 1% penicillin-streptomycin (Gibco)]. Media was supplemented with EGF (20 ng/mL, Sigma), FGF (20 ng/mL, Stemgent, Cambridge, MA) and heparin (5 μg/mL, Sigma), to promote NPC proliferation and expansion. The growth factors were withdrawn to promote neural differentiation for 6 to 8 weeks, with half media change two times per week. Cell lines’ identity was authenticated by SANGER sequencing, karyotyping and ACGH analysis at different stages of culture maintenance from iPSC to NPC. All working cell lines tested negative for mycoplasma contamination.
(§2) Compound treatment in six-well plates was performed in 2 mL media volume by removing 1 mL of conditioned media from the culture and adding 1 mL of new media pre-mixed with the compound at the appropriate 2X concentration, followed by incubation at 37°C for the designated period of time. Compound treatment in 96-well plates was performed in 100 μL media volume by adding compound directly to each well, followed by incubation at 37°C. When testing the effect of drug pre-treatment, the first compound was added as described above for the period of time needed, and then QC-01–175 was added directly onto the media without media exchange.
(§3) Neurons differentiated in six-well plates for 6 weeks were washed and collected in PBS, lysed in RIPA buffer (Boston Bio-Products, Boston, MA) supplemented with 2% SDS (Sigma), protease inhibitors cocktail (Roche Complete Mini tablets, Mannheim, Germany), and phosphatase inhibitors cocktail (Sigma), followed by water sonication (Bransonic Ultrasonic Baths, Thomas Scientific, Danbury, CT) and 20,000 g centrifugation for 20 min. Supernatants were transferred to new tubes and total protein concentration was quantified with the Pierce BCA Protein Assay Kit (ThermoFisher Scientific, Carlsbad, CA). Human recombinant tau protein ladder was purchased from Sigma. Electrophoresis were performed with the Novex NuPAGE SDS-PAGE Gel System (Invitrogen, Carlsbad, CA), by running 10 μg of total protein (pre-boiled in SDS-DTT loading buffer, NEB, Ipswich, MA) on pre-cast SDS-PAGE. Gels were transferred onto PVDF membranes (EMD Millipore) using standard procedures. Membranes were blocked in 5% BSA (Sigma) in Tris-buffered saline with Tween-20 (TBST/Biorad, Hercules, CA) for 2 hr, incubated overnight with primary antibody (see antibody section) at 4°C, followed by corresponding HRP-linked secondary antibody incubation (Cell Signaling Technology, Danvers, MA). […]

[2] = target: T1, recombinant human tau Tau-441(A152T) (Homo sapiens, UniProt P10636, A469T); test: Bio-layer interferometry (BLI) biosensor assay, tau A152T; assay type: binding; settings: BLI steady-state analysis, immobilized biotinylated tau; Figure 1—figure supplement 1B; read-out: KD, Tau A152T
T1 construct: biotin (chemical label, NHS-PEG4); purchased SignalChem T08-56VN; host or cells: E. coli
T1 sequence (P10636 1-441 isoform P10636-8 A152T): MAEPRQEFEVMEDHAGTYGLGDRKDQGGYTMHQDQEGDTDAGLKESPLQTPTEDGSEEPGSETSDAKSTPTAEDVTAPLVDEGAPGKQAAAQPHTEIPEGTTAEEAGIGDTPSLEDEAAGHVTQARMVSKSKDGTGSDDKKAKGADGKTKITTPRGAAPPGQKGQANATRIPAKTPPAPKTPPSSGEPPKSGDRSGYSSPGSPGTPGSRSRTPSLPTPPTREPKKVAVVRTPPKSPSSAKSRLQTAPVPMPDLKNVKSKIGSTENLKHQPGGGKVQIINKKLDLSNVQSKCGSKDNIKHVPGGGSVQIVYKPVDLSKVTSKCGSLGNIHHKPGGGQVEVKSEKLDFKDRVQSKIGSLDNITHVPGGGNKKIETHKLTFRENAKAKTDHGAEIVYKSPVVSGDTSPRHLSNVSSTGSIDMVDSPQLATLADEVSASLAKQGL
Procedure: BLI was performed in the Octet Red384 instrument (ForteBio, Fremont CA, USA) with 1X PBS and 0.01% Brij-35 as the assay buffer. […] The biotinylated protein samples for BLI were purified in 1X phosphate buffered saline (PBS). Streptavidin (SA) sensors were used to measure the biophysical interaction between the small molecules and biotinylated tau. Prior to the initiation of BLI, the SA sensors were soaked by dipping in 200 μL of assay buffer in a 96-well Greiner Bio-One Black flat bottom plate (Greiner, Monroe NC, USA Cat.655209). The assay was performed in 80 μL volume in Greiner Bio-One 384-well black flat bottom PP plates (Greiner, Cat.781209) with an initial baseline step, followed by loading of 250 nM biotinylated tau protein. The small molecules samples and recombinant proteins were arranged in the 384-well plate according to a plate map recommended for the eight-channel mode kinetic analysis, where the sensors move from low to high concentration of small molecule samples. Subsequent steps included a second baseline (120 s), followed by association (240 s) and dissociation (240 s) cycles. […] Data analysis was performed using Data Acquisition HT 11.0 software following reference subtraction (an average of two sensors with DMSO) using a 1:1 binding model and an individual fit of each replicate. The equilibrium dissociation constant (KD) was estimated using data at equilibrium from each available small molecule concentration with steady-state analysis. The instrument manufacturer (Fortebio, article #137) recommends the steady state option for analyzing interactions that are either low affinity or very fast on-and-off affinity rates. […] When Req option is selected, Fortebio’s software calculates affinity constants based on the Req values determined from the curve fits. In the steady-state analysis, Req is plotted against the small molecule concentration to infer the Rmax. […] As per the instrument manufacturer’s instructions, if all curves have reached equilibrium, these two sets of values correspond to ‘Response,’ and Req values should match. […]

[3] = target: T2, recombinant human tau Tau-441(WT) (Homo sapiens, UniProt P10636); test: Bio-layer interferometry (BLI) biosensor assay, tau WT; assay type: binding; settings: BLI steady-state analysis, immobilized biotinylated tau; Figure 1—figure supplement 1B
T2 construct: biotin (chemical label, NHS-PEG4); purchased SignalChem T08-54BN; host or cells: E. coli
T2 sequence (P10636 1-441 isoform P10636-8): as the sequence (P10636 1-441 isoform P10636-8 A152T) above, with T152A counted along it
Procedure: (§4) BLI was performed in the Octet Red384 instrument (ForteBio, Fremont CA, USA) with 1X PBS and 0.01% Brij-35 as the assay buffer. […] The biotinylated protein samples for BLI were purified in 1X phosphate buffered saline (PBS). Streptavidin (SA) sensors were used to measure the biophysical interaction between the small molecules and biotinylated tau. Prior to the initiation of BLI, the SA sensors were soaked by dipping in 200 μL of assay buffer in a 96-well Greiner Bio-One Black flat bottom plate (Greiner, Monroe NC, USA Cat.655209). The assay was performed in 80 μL volume in Greiner Bio-One 384-well black flat bottom PP plates (Greiner, Cat.781209) with an initial baseline step, followed by loading of 250 nM biotinylated tau protein. The small molecules samples and recombinant proteins were arranged in the 384-well plate according to a plate map recommended for the eight-channel mode kinetic analysis, where the sensors move from low to high concentration of small molecule samples. Subsequent steps included a second baseline (120 s), followed by association (240 s) and dissociation (240 s) cycles. […] When Req option is selected, Fortebio’s software calculates affinity constants based on the Req values determined from the curve fits. […]

[4] = target: T3, recombinant human tau Tau-441(P301L) (Homo sapiens, UniProt P10636, P618L); test: Bio-layer interferometry (BLI) biosensor assay, tau P301L; assay type: binding; settings: BLI steady-state analysis, immobilized biotinylated tau; Figure 1—figure supplement 1B
T3 construct: biotin (chemical label, NHS-PEG4); purchased SignalChem T08-56FN; host or cells: E. coli
T3 sequence (P10636 1-441 isoform P10636-8 P301L): as the sequence (P10636 1-441 isoform P10636-8 A152T) above, with T152A, P301L counted along it
Procedure: as §4

[5] = tested on: P-tau S396 in A152T neurons; test: Western blot of P-tau S396 in A152T neurons; assay type: cell-based, human; settings: 24 hr, across biological replicates
From the text: as §1, §2, §3

SMILES: N[C@@H]1C[C@H]1c1ccccc1 (racemic) [Parnate, Tranylcypromine]
IC50 (monoamine oxidase (MAO)): 0.057 µM
MAO Dose Response Hill Slope (monoamine oxidase (MAO)): 1.504
MAO Dose Response Log IC50 (monoamine oxidase (MAO)): -1.240

SMILES: NS(=O)(=O)OC[C@@H]1C[C@@H](n2ccc3c(N[C@H]4CCc5ccccc54)ncnc32)C[C@@H]1O [MLN4924, reference compound]
effect of 6 hr pre-treatment on QC-01–175-mediated tau degradation (total tau and P-tau S396) [1]: caused a concentration-dependent rescue of the effect of QC-01–175

Kd [2]: 22.1 ± 3.26 µM
Kd [3]: 22 ± 2.78 µM
Kd [4]: 8.8 ± 1.11 µM
SMILES: COc1cc(OCc2ccccn2)ccc1/C=C/c1cc(/C=C/c2ccc3cc[nH]c3c2)n[nH]1 [PE859, reference compound]

IC50 (monoamine oxidase (MAO)): > 50 µM
MAO Dose Response Hill Slope (monoamine oxidase (MAO)): 0.108
SMILES: Nc1cccc2c1C(=O)N(C1CCC(=O)NC1=O)C2=O (centres unmarked) [Pomalidomide]

SMILES: CO/C1=C\C(C)=C\[C@@H](C)[C@@H](O)[C@@H](C)C/C(C)=C/C=C/[C@H](OC)[C@@H]([C@@H](C)[C@@H](O)[C@H](C)[C@@]2(O)C[C@@H](O)[C@H](C)[C@@H](C(C)C)O2)OC1=O [bafilomycin A1, Bafilomycin A1, reference compound]
effect of 6 hr pre-treatment on QC-01–175-mediated tau degradation (total tau and P-tau S396) [1]: did not reverse the degrader effect and further promoted tau clearance

SMILES: CC(C)C[C@H](NC(=O)[C@H](CCc1ccccc1)NC(=O)CN1CCOCC1)C(=O)N[C@@H](Cc1ccccc1)C(=O)N[C@@H](CC(C)C)C(=O)[C@@]1(C)CO1 [carfilzomib, Carfilzomib, reference compound]
effect of 6 hr pre-treatment on QC-01–175-mediated tau degradation (total tau and P-tau S396) [1]: caused a concentration-dependent rescue of the effect of QC-01–175

SMILES: Nc1cccc2c1CN(C1CCC(=O)NC1=O)C2=O (centres unmarked) [lenalidomide, Lenalidomide, reference compound]
up-regulation of P-tau S396 ([5]; 1 μM): ~ 30%
up-regulation of P-tau S396 ([5]; 10 μM): ~90%
effect of 6 hr pre-treatment on QC-01–175-mediated tau degradation (total tau and P-tau S396) [1]: reversed QC-01–175-mediated tau degradation in a concentration-dependent manner
